{
  "source": "patent US7452884B2",
  "about": "“Methods for inhibiting angiogenesis” (Fox Chase Cancer Center, priority 2001, dated 2008)",
  "key": {"[1]": {"system": "PAEC-VEGF-Matrigel implants", "conditions": "250 mg/kg/dose p.o. QD for 6 days, nude mice, p<0.05"}, "[2]": {"system": "SVR angiosarcoma xenografts"}, "[3]": {"system": "human umbilical vein endothelial cells (HUVECs)", "test": "Capillary tube formation by HUVECs on Matrigel in vitro", "conditions": "for inhibition of complete capillary tube formation relative to vehicle-treated control cultures: 18 h incubation"}, "[4]": {"system": "rat aortic ring explant cultures", "conditions": "for inhibition of microvessel growth: day 8; for inhibition of microvessel growth relative to vehicle-treated control cultures: day 8 (peak of microvessel growth), serum-free EBM"}},
  "note": "Like-named read-outs stand apart in the source and are kept apart here.",
  "data": [
    {"smiles": "Cc1c(-c2cnccn2)ssc1=S", "note": "[Oltipraz, 5-(2-pyrazinyl)-4-methyl-1,2-dithiol-3-thione]", "values": [
      {"measurement": "reduction in neovascularization (hemoglobin content) relative to TW:PG vehicle-treated control mice", "setting": "[1]", "value": 42, "unit": "%"},
      {"measurement": "morbidity or mortality of treated mice", "setting": "[2]; 250 mg/kg/dose p.o. QD for 10 days", "value": "absence of apparent morbidity or mortality"},
      {"measurement": "inhibition of tumor growth", "setting": "[2]; 250 mg/kg/dose p.o. QD, as early as day 4 of dosing, p<0.005", "value": "significant inhibition of tumor growth"},
      {"measurement": "maximum inhibition of tumor volume relative to TW:PG vehicle-treated mice", "setting": "[2]; 250 mg/kg/dose p.o. QD, day 10 of dosing, p<0.001", "value": 81, "unit": "%"},
      {"measurement": "inhibition of complete capillary tube formation relative to vehicle-treated control cultures", "setting": "[3]; 4 μM", "value": 23, "unit": "%"},
      {"measurement": "inhibition of complete capillary tube formation relative to vehicle-treated control cultures", "setting": "[3]; 40 μM, p<0.05", "value": 62, "unit": "%"},
      {"measurement": "inhibition of complete capillary tube formation relative to vehicle-treated control cultures", "setting": "[3]; 100 μM, p<0.05", "value": 52, "unit": "%"},
      {"measurement": "cytotoxicity to human endothelial cells in culture", "setting": "[3]; 4, 40 and 100 μM", "value": "absence of cytotoxicity"},
      {"measurement": "inhibition of microvessel growth", "setting": "[4]; 0.4 μM", "value": "not inhibitory"},
      {"measurement": "inhibition of microvessel growth", "setting": "[4]; 4 μM", "value": "not inhibitory"},
      {"measurement": "inhibition of microvessel growth relative to vehicle-treated control cultures", "setting": "[4]; 40 μM, p<0.05", "value": 50, "unit": "%"},
      {"measurement": "inhibition of microvessel growth relative to vehicle-treated control cultures", "setting": "[4]; 100 μM, p<0.01", "value": 95, "unit": "%"}
    ]},
    {"smiles": "CO[C@@H]1[C@H](OC(=O)NC(=O)CCl)CC[C@]2(CO2)[C@H]1[C@@]1(C)O[C@@H]1CC=C(C)C", "note": "[TNP470]", "values": [
      {"measurement": "maximum reduction in SVR tumor volume relative to vehicle-treated control mice", "setting": "[2]; 30 mg/kg/dose s.c. Q2D×3, by day 10", "value": 80, "unit": "%"}
    ]}
  ]
}
